Inhibition data for 10 compounds are collected here from patent US5767128A, “1,3-dihydro-2H-pyrrolo[2,3-b]pyridin-2-one compounds” (Adir et Compagnie, priority 1994, dated 1998).

Where two headings read alike, the source gives them in different places.

Experiment [1] concerns abdominal cramps induced in the rat by acetic acid. As to the kind of experiment: Cramps induced with acetic acid (KOSTER test), analgesic activity, per os. The format is in vivo, rat (male Wistar). Particulars: po, read-out: Acetic Acid Writhing, % inhibition (% decrease in the number of cramps compared with the control animals). The protocol: 1) Cramps induced with acetic acid
Male Wistar rats randomly divided into groups of 5 (weight 150±10 g) receive the test products per os 30 minutes before the intraperitoneal injection of 1 cm^3 of 1% acetic acid.
The number of cramps is counted during the 25 minutes which follow the injection.
(§1) The percentage activity was evaluated for each compound (% decrease in the number of cramps in the treated animals compared with the control animals).

The test system of experiment [2] is cramps induced in the mouse by phenylbenzoquinone. Nature of the experiment: Cramps induced with phenylbenzoquinone (SIEGMUND test), analgesic activity, per os. It counts as in vivo, mouse (male CD-1). Particulars: po, read-out: PBO Whrithing, % inhibition (% decrease in the number of cramps compared with the control animals). How it is done:
2) Cramps induced with phenylbenzoquinone
Male CD-1 mice randomly divided into groups of 5 receive the test products per os 30 minutes before the intraperitoneal injection of 0.25 cm3 of a 0.01% solution of phenylbenzoquinone in a 95:5 mixture of water and ethanol.
The number of cramps is counted between the 5th and the 15th minute after the injection of phenylbenzoquinone.
as §1

[3] abbreviates: rat, 50 mg/kg per os, 30 minutes before acetic acid, 25 minutes count.
Where [4] appears, read: mouse, 50 mg/kg per os, 30 minutes before phenylbenzoquinone, count 5th to 15th minute.

For orientation: inhibition means the change of the read-out against control, counted positive when it falls. Take `CC(=O)c1cnc2c(c1)CC(=O)N2C` [Example 13, 1,3-DIHYDRO-1-METHYL-5-ACETYL-2H-PYRROLO[2,3-b]PYRIDIN-2-ONE]: in experiment [1] (setting [3]), the inhibition at 50 mg/kg amounted to 96%.

As for `CC(=O)Oc1ccccc1C(=O)O` [Aspirin, reference compound], the inhibition at 50 mg/kg came to 56% in experiment [1] (Rattus norvegicus) and 62% in experiment [2] (Mus musculus). As to `Cn1c(=O)oc2cc(CCCN3CCN(c4ccccc4)CC3)cnc21` [Example 20, 3-METHYL-6-[3-(4-PHENYLPIPERAZIN-1-YL)PROP-1-YL]OXAZOLO[4,5-b]PYRIDIN-2(3H)-ONE], the inhibition at 50 mg/kg in experiment [2] (setting [4]) is 100%.

On to `O=C(c1ccccc1)c1cnc2[nH]c(=O)oc2c1` [Example 6, 6-BENZOYLOXAZOLO[4,5-b]PYRIDIN-2(3H)-ONE], for which the inhibition at 50 mg/kg in experiment [1] (setting [3]) is 88%. Consider `Cn1c(=O)oc2cc(C(O)CN3CCN(c4ccccc4)CC3)cnc21` (stereo not drawn) [Example 24, 3-METHYL-6-[2-(4-PHENYLPIPERAZIN-1-YL)-1-HYDROXYETHYL]OXAZOLO[4,5-b]PYRIDIN-2(3H)-ONE], for which the inhibition at 50 mg/kg in experiment [1] (setting [3]) was determined as 86%; in experiment [2] (setting [4]), 97%.

As to `Cn1c(=O)oc2cc(CN3CCN(c4ccccc4)CC3)cnc21` [Example 16, 3-METHYL-6-[(4-PHENYLPIPERAZIN-1-YL)METHYL]OXAZOLO[4,5-b]PYRIDIN-2(3H)-ONE], the inhibition at 50 mg/kg in experiment [1] (setting [3]) came out at 98%; in experiment [2] (setting [4]), 57%. `Cn1c(=O)oc2cc(C(=O)c3ccccc3)cnc21` [Example 5, 3-METHYL-6-BENZOYLOXAZOLO[4,5-b]PYRIDIN-2(3-ONE]: the inhibition at 50 mg/kg in experiment [1] (setting [3]) and in experiment [2] (setting [4]) was 85% throughout.

Take `CN1C(=O)Cc2cc(CN3CCN(c4ccccc4)CC3)cnc21` [Example 46, 1,3-DIHYDRO-5-(4-PHENYLPIPERAZIN-1-YLMETHYL)-1-METHYL-2H-PYRROLO[2,3-b]PYRIDIN-2-ONE]: the inhibition at 50 mg/kg in experiment [2] (setting [4]) came out at 67%. The same measure, in the same setting: the result for `CN1C(=O)Cc2cc(C(=O)CN3CCN(c4ccccc4)CC3)cnc21` [Example 47, 1,3-DIHYDRO-5-[2-(4-PHENYLPIPERAZIN-1-YL)ACETYL)-1-METHYL-2H-PYRROLO[2,3-b]PYRIDIN-2-ONE] reads 90%.

As for `Cn1c(=O)oc2cc(C(=O)CN3CCN(c4ccccc4)CC3)cnc21` [Example 22, 3-METHYL-6-[2-(4-PHENYLPIPERAZIN-1-YL)ACETYL]OXAZOLO[4,5-b]PYRIDIN-2(3H)-ONE], the inhibition at 50 mg/kg was found to be 97% in experiment [1] (setting [3]) and 53% in experiment [2] (setting [4]).
